Reference: EP0057664A2, “Clavam derivatives” (CIBA-GEIGY AG, priority 1981, dated 1982)
Converted amounts (≈) assume the structure as drawn. “Also recorded” adds a separate entry of the source. Where two headings read alike, the source gives them in different places.

Assays:
[1] = test system: Mucor miehei; experiment: Plate agar diffusion test, minimal inhibitory concentration against Mucor miehei; format: cell-based; conditions: Rhizomucor miehei
Procedure: Die antibakterielle Wirkung kommt sowohl gegen gram-positive wie gram-negative Bakterien zur Geltung, wie z.B. im Platten-Agardiffusionstest in vitro [10 µl/Testrondelle (6 mm ø)] gezeigt werden kann, wo sie bei verschiedenen pathogenen Keimen eine minimale Hemmkonzentration im Bereiche von 1-200 µg/ml zeigen. Von den gegenüber den neuen Verbindungen empfindlichen gram-positiven Bakterien seien z.B. die folgenden genannt: Bacillus cereus, Bacillus subtilis, Clostridium pasteurianum, Corynebacterium rathayi, von den gram-negativen folgende: Agrobacterium tumefaciens, Erwinia amylovorum, Escherichia coli K 12 wild type, Klebsiella aerogenes, Serratia marcescens 13880, Serratia marcescens 30122.
Die antifungische Wirkung tritt praktisch gegenüber den meisten Pilzen auf. So weist das Antibiotikum Tü 1718 und insbesondere die Verbindungen der Formel (IV) im oben genannten Agardiffusionstest eine minimale Hemmkonzentration im Bereiche von ca. 0,1-200 µg/ml gegenüber sehr vielen pathogenen und nicht pathogenen Pilzen, z.B. gegen Pythium debarianum, Mucor hiemalis+, Mucor hiemalis-, Mucor miehei, Trichophyton mentagrophytes, Botrytis cinerea 157, Aspergillus fumigatus, und mehrere andere. So besitzen z.B. die nachstehend aufgeführten spezifischen Verbindungen die folgenden minimalen Hemmkonzentrationen gegenüber Mucor miehei: • Komponente A1 von Antibiotikum Tü 1718, d.h. (2S,5S)-2-(2-Hydroxyäthyl)-clavam = 10 ug/ml
(§1) Bei der […] kann der Plattendiffusionstest dienen, wobei vorzugsweise folgende Testkeime verwendet werden: Clostridium pasteurianum, Escherichia coli und Mucor miehei. Die minimale Hemmkonzentration der Hauptkomponente des Antibiotikums in µg/m1 gegenüber den eben genannten Mikroorganismen ist wie folgt: • Clostridium pasteurianum 50

[2] = test system: Clostridium pasteurianum; experiment: Plate diffusion test, minimal inhibitory concentration against Clostridium pasteurianum; format: cell-based; conditions: Plattendiffusionstest, read-out: minimale Hemmkonzentration
From the text: as §1

[3] = test system: Tumorzellen der Zellinie NS-1; experiment: Tumour-inhibiting effect on tumour cells of cell line NS-1; format: cell-based, Maus; conditions: Zellinie NS-1, compared with Actinomycin C
From the text: Das neue Antibiotikum, seine Extrakte und die neuen Verbindungen der Formel (IV) besitzen zudem auch eine tumorhemmende Wirkung, wie in Versuchen an Tumorzellen der Zellinie NS-1, einer Variante der Zelline P 3, die aus Mineralöl-induzierten Plastocytomen der Maus stammen, gezeigt werden kann.

[4] = Solubility in solvents and water; format: physicochemical
From the text: (§2) Als Aufbewahrungsmittel eignet sich Chloroform. […] Es ist somit möglich, die Verbindungen in Form all jener pharmazeutischen Präparate zu verwenden, die Wasser enthalten, wie insbesondere von wässrigen Lösungen bei der parenteralen oder oralen Applikation, oder Cremen oder Salben oder Tinkturen bei der topischen Gabe.
(§3) Als Aufbewahrungsmittel eignet sich Chloroform. […] Bei der Dünnschichtchromatographie z.B. an Kieselgel-Alufolien kann die Substanz z.B. durch folgende Sprühreagenzien sichtbar gemacht werden: Ehrlich's Reagenz, rot; Vanillin/ ^H2S04, lindgrün; Ninhydrin, gelb mit violettem Rand.

[5] = Stability solvent-free and in aqueous solution; format: physicochemical
From the text: as §2, §3

[6] = Agardiffusionstest, read-out: minimale Hemmkonzentration gegenüber Mucor miehei

Row | Structure (SMILES) | MIC [1, 6] | MIC ([1]; Plattendiffusionstest, Mucor miehei, read-out: minimale Hemmkonzentration) | MIC [2] | tumorhemmende Wirkung [3] | Löslichkeit in Chloroform, Aceton, Methanol ([4]; Chloroform, Aceton, Methanol) | Löslichkeit in Wasser ([4]; Wasser) | Stabilität in lösungsmittelfreiem Zustand ([5]; lösungsmittelfrei) | Stabilität in wässerigen Lösungen ([5]; wässerige Lösungen, pH 5-7)
1 | O=C1C[C@@H]2O[C@@H](CCO)CN12 [Komponente A1 von Antibiotikum Tü 1718, (2S,5S)-2-(2-Hydroxyäthyl)-clavam] | 10 µg/mL (≈ 63.6 µM) | 10 to 20 µg/mL (≈ 63.6 to 127 µM) | 50 µg/mL (≈ 318 µM) | ca. die Hälfte der tumorhemmenden Wirkung von Actinomycin C | sehr gut; also recorded: gut löslich | weniger gut löslich; also recorded: mässig löslich | beschränkt stabil | einigermassen gute Stabilität
2 | O=C(COc1ccccc1)OCC[C@H]1CN2C(=O)C[C@@H]2O1 [(2S,5S)-2-(2-Phenoxyacetoxyäthyl)-clavam] | 0.1 µg/mL (≈ 0.343 µM) |  |  |  |  |  |  | 
